Patent US20200061062A1, “INHIBITORS OF HUMAN PHOSPHATIDYLINOSITOL 3-KINASE DELTA” (ICOS Corporation, priority 2000, published 2020)
Read-outs that look alike come from different tables or passages of the source.

How the values were obtained:
[1] = target: T1, PI3Kα (Homo sapiens, UniProt P42336); experiment: Biochemical assay of PI3K potency and selectivity using 20 μM ATP, Alpha; conditions: for Alpha/Delta Ratio: ratio of IC50 values, > = hypothetical ratio with 100 μM substituted for the missing IC50; for remaining activity at 100 µM: read-out: percent activity remaining at 100 μM, 20 μM ATP, 100 μM compound did not inhibit by at least 50%
T1 construct: His tag (pFastbac HTb vector) (N); FLAG; made in house; host or cells: Sf21 insect cells (baculovirus)
T1 sequence (P42336 whole entry): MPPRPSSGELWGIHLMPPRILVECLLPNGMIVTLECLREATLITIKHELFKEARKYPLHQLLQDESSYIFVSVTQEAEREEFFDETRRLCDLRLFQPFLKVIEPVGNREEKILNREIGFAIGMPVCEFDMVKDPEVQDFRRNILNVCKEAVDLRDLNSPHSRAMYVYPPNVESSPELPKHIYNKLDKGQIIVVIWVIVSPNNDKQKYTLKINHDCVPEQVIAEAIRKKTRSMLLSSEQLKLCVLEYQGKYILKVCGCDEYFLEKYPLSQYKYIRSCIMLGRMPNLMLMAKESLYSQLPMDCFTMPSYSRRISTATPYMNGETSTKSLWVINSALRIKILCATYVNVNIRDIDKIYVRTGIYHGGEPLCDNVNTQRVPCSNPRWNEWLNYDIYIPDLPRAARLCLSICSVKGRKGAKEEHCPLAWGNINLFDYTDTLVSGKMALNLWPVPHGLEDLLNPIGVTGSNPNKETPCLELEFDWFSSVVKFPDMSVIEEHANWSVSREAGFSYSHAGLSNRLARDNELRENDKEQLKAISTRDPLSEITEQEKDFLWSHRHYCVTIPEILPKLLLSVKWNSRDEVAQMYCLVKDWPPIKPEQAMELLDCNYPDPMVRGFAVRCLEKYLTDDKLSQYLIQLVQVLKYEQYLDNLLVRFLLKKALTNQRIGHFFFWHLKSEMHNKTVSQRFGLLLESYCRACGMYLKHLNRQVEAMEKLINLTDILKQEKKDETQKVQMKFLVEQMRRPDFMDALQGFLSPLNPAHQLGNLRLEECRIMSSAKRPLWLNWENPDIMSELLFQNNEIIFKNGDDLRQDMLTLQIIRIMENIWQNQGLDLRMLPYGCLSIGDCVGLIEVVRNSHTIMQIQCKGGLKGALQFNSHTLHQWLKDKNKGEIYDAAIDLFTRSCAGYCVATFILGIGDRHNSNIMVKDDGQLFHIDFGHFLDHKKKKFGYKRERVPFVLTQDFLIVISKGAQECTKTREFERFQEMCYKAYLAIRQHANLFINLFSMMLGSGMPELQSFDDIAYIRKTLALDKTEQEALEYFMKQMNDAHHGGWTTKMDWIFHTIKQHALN
T1 sequence (P27986 whole entry partner): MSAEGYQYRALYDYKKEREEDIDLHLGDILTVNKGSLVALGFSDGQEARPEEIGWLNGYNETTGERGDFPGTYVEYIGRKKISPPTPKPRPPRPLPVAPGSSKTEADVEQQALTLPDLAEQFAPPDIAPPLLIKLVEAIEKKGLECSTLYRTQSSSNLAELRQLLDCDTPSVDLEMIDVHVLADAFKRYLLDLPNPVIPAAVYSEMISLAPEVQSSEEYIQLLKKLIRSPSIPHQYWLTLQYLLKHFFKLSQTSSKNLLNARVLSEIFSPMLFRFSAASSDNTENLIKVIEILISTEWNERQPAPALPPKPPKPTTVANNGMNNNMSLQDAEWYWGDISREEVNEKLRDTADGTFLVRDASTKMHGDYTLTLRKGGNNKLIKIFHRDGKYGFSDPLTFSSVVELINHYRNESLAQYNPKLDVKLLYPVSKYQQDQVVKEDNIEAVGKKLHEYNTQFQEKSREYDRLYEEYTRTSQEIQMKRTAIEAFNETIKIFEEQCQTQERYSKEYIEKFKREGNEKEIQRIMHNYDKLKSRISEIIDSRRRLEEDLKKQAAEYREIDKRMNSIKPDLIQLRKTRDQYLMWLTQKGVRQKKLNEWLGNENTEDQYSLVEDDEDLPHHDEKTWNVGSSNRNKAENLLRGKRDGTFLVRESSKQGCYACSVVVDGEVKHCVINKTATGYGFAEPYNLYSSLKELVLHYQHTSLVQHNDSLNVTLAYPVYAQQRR
Procedure, shortened: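 Radioactive phosphate transfer from γ-[32P]ATP onto PIP2/PS liposomes was measured in 20 mM HEPES, pH 7.4, at 20 μM ATP. The 3× substrate stock contained […] and 6 μM PIP2/PS.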

[2] = target: T2, PI3Kγ (Homo sapiens, UniProt P48736); experiment: Biochemical assay using 200 μM ATP, Gamma
T2 construct: His tag (pFastbac HTb vector) (N); FLAG (N); made in house; host or cells: Sf21 insect cells (baculovirus)
T2 sequence (P48736 whole entry): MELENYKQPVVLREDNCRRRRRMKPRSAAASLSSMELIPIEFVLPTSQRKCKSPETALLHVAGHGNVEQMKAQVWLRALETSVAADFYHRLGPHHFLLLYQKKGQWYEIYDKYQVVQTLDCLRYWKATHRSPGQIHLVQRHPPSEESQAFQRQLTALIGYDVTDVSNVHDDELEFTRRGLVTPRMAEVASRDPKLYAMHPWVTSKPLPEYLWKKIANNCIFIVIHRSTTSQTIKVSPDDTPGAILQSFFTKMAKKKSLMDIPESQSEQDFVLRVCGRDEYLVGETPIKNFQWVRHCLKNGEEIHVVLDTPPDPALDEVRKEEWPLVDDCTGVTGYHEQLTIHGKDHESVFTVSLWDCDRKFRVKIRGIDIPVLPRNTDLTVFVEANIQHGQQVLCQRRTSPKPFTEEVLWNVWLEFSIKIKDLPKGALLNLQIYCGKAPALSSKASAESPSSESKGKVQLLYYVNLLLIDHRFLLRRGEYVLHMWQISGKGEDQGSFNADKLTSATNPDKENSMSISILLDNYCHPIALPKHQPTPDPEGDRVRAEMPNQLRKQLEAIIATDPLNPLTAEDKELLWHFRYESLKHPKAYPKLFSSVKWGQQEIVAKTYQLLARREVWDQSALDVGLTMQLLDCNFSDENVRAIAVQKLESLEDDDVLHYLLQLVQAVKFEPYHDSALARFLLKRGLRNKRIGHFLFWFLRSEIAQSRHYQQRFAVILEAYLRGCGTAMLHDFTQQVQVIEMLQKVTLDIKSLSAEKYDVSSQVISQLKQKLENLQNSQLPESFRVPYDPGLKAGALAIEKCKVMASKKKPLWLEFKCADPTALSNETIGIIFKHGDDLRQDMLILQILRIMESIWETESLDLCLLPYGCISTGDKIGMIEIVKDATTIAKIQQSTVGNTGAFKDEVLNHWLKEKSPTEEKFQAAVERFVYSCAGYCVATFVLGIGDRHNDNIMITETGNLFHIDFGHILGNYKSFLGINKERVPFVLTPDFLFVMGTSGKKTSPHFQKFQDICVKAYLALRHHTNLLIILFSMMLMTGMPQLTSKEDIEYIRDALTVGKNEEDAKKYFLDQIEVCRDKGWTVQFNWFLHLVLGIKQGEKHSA

[3] = tested on: human neutrophils; experiment: Elastase exocytosis from neutrophils (fMLP-induced); format: cell-based; conditions: for EC50: neutrophil (PMN) elastase release
Procedure, shortened: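 Human blood neutrophils (Ficoll-Hypaque) treated with compound or DMSO, then stimulated 90 min at 37 °C with 1 μM fMLP plus 0.01 mg/mL cytochalasin B, 1.0 μM NaN3 and 5 μg/mL L-methionine. Supernatant elastase read at 410 nm over 2 h on MeO-suc-AAPV-pNA, normalized to uninhibited; EC50 in μM.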

[4] = tested on: human neutrophils; experiment: fMLP-induced human neutrophil migration; format: cell-based
Description: Neutrophils have the intrinsic capacity to migrate through tissues, and are one of the first cell types to arrive at the sites of inflammation or tissue injury. The effect of D-000 on neutrophil migration towards a concentration gradient of fMLP was measured. The day before the migration assays were performed, 6-well plates were coated with recombinant ICAM-1/Fc fusion protein (Van der Vieren et al., Immunity, 3:683-690 (1995)) (25 μg/mL in bicarbonate buffer, pH 9.3) and left overnight at 4° C. After washing, 1% agarose solution, in RPMI-1640 with 0.5% bovine serum albumin (BSA), was added to wells with or without an inhibitor, and plates were placed into a refrigerator before punching holes in the gelled agarose to create plaques (1 central hole surrounded by 6 peripheral ones per well).
Human neutrophils were obtained as described above, and resuspended in RPMI medium supplemented with 0.5% BSA at 5×10^6 cells/mL. After combining equal volumes of neutrophil suspension and medium (either with DMSO or a serial dilution of the test compound in DMSO), neutrophils were aliquoted into the peripheral holes, while the central hole received fMLP (5 μM). Plates were incubated at 37° C. in the presence of 5% CO2 for 4 hr, followed by termination of migration by the addition of 1% glutaraldehyde solution in D-PBS. After removing the agarose layer, wells were washed with distilled water and dried.
Analysis of neutrophil migration was conducted on a Nikon DIAPHOT® inverted microscope (1× objective) video workstation using the NIH 1.61 program. Using Microsoft Excel and Table Curve 4 (SSPS Inc., Chicago Ill.) programs, a migration index was obtained for each of the studied conditions. Migration index was defined as the area under a curve representing number of migrated neutrophils versus the net distance of migration per cell.
Using the methods described in Examples 3-5, above, compounds of the invention were tested for inhibitory activity and potency in assays of stimulated B and T cell proliferation, neutrophil (PMN) migration, and neutrophil (PMN) elastase release. In Table 4, the values shown are effective concentrations of the compound (EC50; μM). Where no value is given, no assay was performed.

[5] = tested on: Murine splenocytes (Balb/c); experiment: B cell proliferation in response to cell surface IgM stimulation; format: cell-based; conditions: Mus musculus, Splenocyte; for EC50: stimulated B cell proliferation, read-out: Mouse BCR Stim (EC50)
Procedure, shortened: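 Balb/c splenocytes (2×10^5/well, 10% FBS/RPMI) preincubated 30-60 min with inhibitor, then stimulated with goat F(ab′)2 anti-mouse IgM μ-chain at 25 μg/mL final. Cultured 3 days at 37° C., [^3H]-thymidine pulsed for final 4 h; incorporation counted as CPM. Values are EC50 (μM).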

[6] = tested on: T cell proliferation; experiment: Stimulated T cell proliferation (Mouse TCE Stim, Table 4); format: cell-based; conditions: stimulated T cell proliferation, read-out: Mouse TCE Stim (EC50)
[7] = target: PI3Kδ (Homo sapiens, UniProt O00329, S253N); experiment: Biochemical assay using 200 μM ATP, Delta;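 also: radiometric filter-binding assay: PI3Kδ transfers ³²P from γ-[³²P]ATP onto PIP2/PS liposomes, counted by scintillation, enzyme-only wells as positive control, no-enzyme wells as background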
PI3Kδ, sequence (O00329 whole entry S253N): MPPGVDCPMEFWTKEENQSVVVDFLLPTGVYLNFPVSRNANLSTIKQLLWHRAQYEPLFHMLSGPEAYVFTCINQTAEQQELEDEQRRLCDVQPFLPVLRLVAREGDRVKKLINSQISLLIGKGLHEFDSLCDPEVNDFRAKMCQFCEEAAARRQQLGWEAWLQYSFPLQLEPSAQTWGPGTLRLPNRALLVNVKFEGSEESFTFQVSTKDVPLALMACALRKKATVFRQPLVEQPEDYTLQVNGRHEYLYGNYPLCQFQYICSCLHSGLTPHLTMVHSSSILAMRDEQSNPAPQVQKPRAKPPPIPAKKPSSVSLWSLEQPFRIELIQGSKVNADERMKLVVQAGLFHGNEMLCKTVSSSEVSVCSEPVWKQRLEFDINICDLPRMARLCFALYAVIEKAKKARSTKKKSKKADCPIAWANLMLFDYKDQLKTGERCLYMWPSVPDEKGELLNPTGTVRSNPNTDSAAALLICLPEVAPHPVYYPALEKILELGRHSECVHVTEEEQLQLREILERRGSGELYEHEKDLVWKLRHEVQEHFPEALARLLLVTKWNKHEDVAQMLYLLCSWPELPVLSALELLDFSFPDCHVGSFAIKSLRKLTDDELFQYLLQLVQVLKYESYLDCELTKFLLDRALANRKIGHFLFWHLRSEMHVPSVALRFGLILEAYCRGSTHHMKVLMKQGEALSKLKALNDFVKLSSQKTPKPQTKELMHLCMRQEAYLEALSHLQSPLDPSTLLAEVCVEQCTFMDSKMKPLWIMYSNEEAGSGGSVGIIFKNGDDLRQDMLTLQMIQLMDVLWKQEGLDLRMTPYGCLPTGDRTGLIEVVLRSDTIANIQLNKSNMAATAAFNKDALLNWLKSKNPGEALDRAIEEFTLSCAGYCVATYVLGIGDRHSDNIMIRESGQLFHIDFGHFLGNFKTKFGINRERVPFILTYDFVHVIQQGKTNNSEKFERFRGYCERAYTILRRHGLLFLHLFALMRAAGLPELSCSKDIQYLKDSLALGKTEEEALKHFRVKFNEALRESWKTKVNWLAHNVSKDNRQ
PI3Kδ, sequence (P27986 whole entry partner): as the sequence (P27986 whole entry partner) above

[8] = neutrophil (PMN) migration, read-out: Human PMN Migration (EC50)

Row | SMILES | Alpha/Delta Ratio ([1]; 20 μM ATP) | IC50 ([1]; Example 2 assay conditions, limit of 100 μM compound, read-out: IC50, α isoform of PI3K (FIG. 1)) [nM] | remaining activity at 100 µM [1] [%] | Gamma/Delta Ratio [2] | IC50 [2] [nM] | IC50 ([3]; Neutrophil, 1.5 h, 1 μM fMLP, 90 min, FIG. 4, read-out: Concentration of half-maximal inhibition of fMLP-induced elastase exocytosis) [nM] | EC50 [3] [nM] | EC50 ([4]; Neutrophil, fMLP (5 μM) gradient, 4 hr, FIG. 5, read-out: EC50 for inhibition of neutrophil migration) [nM] | EC50 [4, 8] [nM] | IC50 ([5]; anti-IgM 25 μg/mL, 3 days, [3H]-thymidine, FIG. 8, read-out: Concentration reducing anti-IgM-stimulated B cell proliferation to its half-maximal value) [nM] | EC50 [5] [nM] | EC50 [6] [nM] | IC50 [7] [nM] | IC50 ([1]; 20 μM ATP, read-out: Alpha IC50) [nM]
1 | O=c1c2ccccc2nc(CSc2ncnc3[nH]cnc23)n1-c1ccccc1Cl [Compound D-000, 3-(2-chlorophenyl)-2-(9H-purin-6-ylsulfanylmethyl)-3H-quinazolin-4-one] | >302 | > 100000 | 86 | 18 | 35000 ± 35000 | 2000 to 3000 | 2200 ± 2000 | ~1000 | 1000 to 5000 | ~1000 | 900 ± 400 | 5500 ± 4000 | 2000 ± 1000 | 
2 | O=c1c2c(F)cccc2nc(CSc2ncnc3[nH]cnc23)n1-c1ccccc1Cl [Compound D-015, 3-(2-Chlorophenyl)-5-fluoro-2-(9H-purin-6-ylsulfanylmethyl)-3H-quinazolin-4-one] | >480 |  | 65 | 160 |  |  | 1300 ± 400 |  | 2000 |  | 1200 ± 200 | 1800 | 1100 ± 500 | 
3 | O=c1c2c(Cl)cccc2nc(CSc2ncnc3[nH]cnc23)n1-c1ccccc1Cl [Compound D-025, 5-Chloro-3-(2-chlorophenyl)-2-(9H-purin-6-ylsulfanylmethyl)-3H-quinazolin-4-one] | >909 |  | 73 | 24 | 7800 ± 3000 |  | 300 ± 200 |  | 300 ± 300 |  | 300 ± 100 | 4400 ± 600 | 320 ± 300 | 
4 | O=c1c2ccccc2nc(CSc2ncnc3[nH]ncc23)n1-c1ccccc1Cl [Compound D-999, 3-(2-Chlorophenyl)-2-(1H-pyrazolo[3,4-d]pyrimidin-4-ylsulfanylmethyl)-3H-quinazolin-4-one, reference compound] | 2.2 |  |  | 1 | 90000 |  | > 20000 |  | 1000 |  | 3100 ± 700 | 5900 | 75000 | 105000
